Among the data in US7875607B2, “7,8-bicycloakyl-chroman derivatives” (Ampere Life Sciences, Inc., priority 2004, dated 2011) are EC50 values, retold here.

The subject of assay [1] is ELAM (E-selectin) expression in endothelial cells. Briefly: Cell-ELAM assay. The assay is classed as cell-based. Conditions: 10 μg/ml LPS and 100 pg/ml IL-1β, 6 hours. From the text:
In vitro cell-based assays for inflammation are well known in the art, for example e-selectin (also named Endothelial Leukocyte Adhesion Molecule or ELAM) or C-reactive protein (CRP). The ELAM assay measures in vitro activity of the test compounds in reducing expression of ELAM in activated endothelial cells. Briefly, endothelial cells are […] by adding known activators such as lipopolysaccharides, TNF or IL-1, alone or in some combination. Activated cells produce ELAM, which can be measured using, for example, an E-selectin monoclonal antibody-based ELISA assay. Similarly the CRP assay measures in vitro activity of test compounds in reducing expression of CRP in Human Hep3B epithelial cells. The activated cells produce CRP, which can be measured with a CRP ELISA assay.
Endothelial-Leukocyte Adhesion Molecule (ELAM), also known as E-selectin, was expressed on the surface of endothelial cells. In this assay, lipopolysaccharide (LPS) and IL-1β were used to stimulate the expression of ELAM; test agents were tested for their abilities to reduce this expression, in accordance with studies showing that reduction of leukocyte adhesion to endothelial cell surface was associated with decreased cellular damage (e.g., Takada, M., Et al., Transplantation 64: 1520-25, 1997; Steinberg, J. B., et al., J. Heart Lung Trans. 13:306-313, 1994).
Endothelial cells may be selected from any of a number of sources and cultured according to methods known in the art; including, for example, coronary artery endothelial cells, human brain microvascular endothelial cells (HBMEC; Hess, D. C., et al., Neurosci. Lett. 213(1): 37-40, 1996), or lung endothelial cells. Cells were conveniently cultured in 96-well plates. Cells were stimulated by adding a solution to each well containing 10 μg/ml LPS and 100 pg/ml IL-1β for 6 hours in the presence of test agent (specific concentrations and time may be adjusted depending on the cell type) Treatment buffer was removed and replaced with pre-warmed Fixing Solution® (100 μl/well) for 25 minutes at room temperature. Cells were then washed 3×, then incubated with Blocking Buffer (PBS+2% FBS) for 25 minutes at room temperature. Blocking Buffer containing Monoclonal E-Selectin Antibody (1:750, Sigma Catalog # S-9555) was added to each well. Plates were sealed and stored at 4° overnight. Plates were washed 4× with 160 μL Blocking Buffer per well. Second Antibody-HRP diluted 1:5000 in Blocking Buffer was then added (100 μL/well), and plates were incubated at room temperature (protected from light) for two hours. Plates were then washed 4× with Blocking Buffer before addition of 100 μL of ABTS Substrate solution at room temperature (Zymed, Catalog # 00-2024). Wells were allowed to develop for 35 minutes, before measurement at 402 nm in a Fluoroskan® Reader with shake program for 10 seconds. Positive results were recorded as a decrease in ELAM concentration in tested wells, as compared to control wells.

The subject of assay [2] is dopaminergic neuronal cell line. Kind of assay: High glutamate-induced oxidative stress assay (HGOS). The assay is classed as cell-based. Conditions: Mus musculus; 30 mM glutamate, 16 hrs; read-out: EC50, protection against HGOS cell injury and cell death. In a few lines: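 Mouse dopaminergic cells (passage ≤ p11) were grown 72 h at 33 °C, washed in HBSS, then exposed 16 h at 37 °C to compounds in DMEM-No Glu with 1 mM glucose and 30 mM glutamate. Surviving cells were stained 30 min with 5 μM Cell Tracker Green and fluorescence read at 485/538 nm.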

pEC50: −log10 of the molar value.

By pEC50 is commonly meant the negative decadic logarithm of the EC50, by convention in mol/L. As to `CC1(C)CCc2cc(O)c3c(c2O1)C1CCC3CC1` [2,2-Dimethyl-3,4,7,8,9,10-hexahydro-7,10-ethano-2H-benzo[h]chromen-6-ol], the pEC50 in assay [1] was not below 4.52.
On to `CC(C)=CCc1c(O)c2c(c3c1CCC(C)(C)O3)C1CCC2C1` (stereo not drawn) [2,2-Dimethyl-5-(3-methyl-but-2-enyl)-3,4,7,8,9,10-hexahydro-7,10-methano-2H-benzo[h]chromen-6-ol], for which the figures for the pEC50 in assay [2] and in assay [1] were not below 6.00 and not below 4.52, respectively.
In the same order, the values of `CC(C)CCc1c(O)c2c(c3c1CCC(C)(C)O3)C1CCC2C1` (stereo not drawn) [2,2-Dimethyl-5-(3-methyl-butyl)-3,4,7,8,9,10-hexahydro-7,10-methano-2H-benzo[h]chromen-6-ol] are not below 6.00 and not below 4.52.
Regarding `CC1(C)C=Cc2cc(O)c3c(c2O1)C1CCC3CC1` [2,2-Dimethyl-7,8,9,10-tetrahydro-7,10-ethano-2H-benzo[h]chromen-6-ol], the pEC50 in assay [2] was not below 6.00.
As for `CC1(CCCCl)CCc2cc(O)c3c(c2O1)C1CCC3C1` (stereo not drawn) [2-(3-Chloro-propyl)-2-methyl-3,4,7,8,9,10-hexahydro-7,10-methano-2H-benzo[h]chromen-6-ol], the pEC50 was not below 6.00 in assay [2] and not below 4.52 in assay [1].
Taken in the same sequence, the figures for `CC(C)CSCCCC1(C)CCc2cc(O)c3c(c2O1)C1CCC3C1` (stereo not drawn) [2-(3-isobutylsulfanyl-propyl)-2-methyl-3,4,7,8,9,10-hexahydro-7,10-methano-2H-benzo[h]chromen-6-ol] were not below 6.00 and not below 4.52.
`CC1(CCCSc2nccs2)CCc2cc(O)c3c(c2O1)C1CCC3C1` (stereo not drawn) [2-Methyl-2-[3-(thiazol-2-ylsulfanyl)-propyl]-3,4,7,8,9,10-hexahydro-7,10-methano-2H-benzo[h]chromen-6-ol]: the pEC50 is not below 6.00 in assay [2] and not below 4.52 in assay [1].
